25 compounds from patent US20250154145A1, “OXER1 ANTAGONISTS AND USES THEREOF” (Fairhaven Pharmaceuticals Ins., priority 2021, published 2025) can be followed below.

Bounds are passed on as bounds.

One test has as its system neutrophils. The test is described as follows: Neutrophil calcium flux assay (5-OXO-ETE-stimulated, Indo-1 fluorescence). Type of test: cell-based. Conditions: 5-OXO-ETE-stimulated calcium flux. As for the experimental part:
After isolation, neutrophils were resuspended in PBS without calcium and Magnesium (PBS −/−) at a concentration of 5×10^6 cells/ml. 2ul of Indo-1 (1 mM) were added per ml of cells. After incubation at 37° C. for 30 minutes, cells were washed twice in PBS −/− and resuspended at 5×10^6 cells/ml in assay buffer (HBSS 1× with calcium and magnesium and […]). In a 96-well Black optical clear bottom plate 100 μL of neutrophil were dispensed to each well. After incubation at 37° C. for 5 minutes, 50 μL of assay buffer or 3× antagonist were added and incubated for 5 min in a Tecan Spark plate reader (Tecan, Morrisville, NC). Baseline was measured for 30 sec (wavelength setup: excitation: 331 nm and emission:410 nm). When baseline is stable, 50p of 5-OXO-ETE at 200 nM (4×) or HBSS was added to appropriate wells. Fluorescence was measured every 5 seconds for 30 cycles. Results are expressed as Net fluorescence (FLU minus Background and injection peak). All data were analyzed using GraphPad Prism version 9 for Windows (GraphPad, San Diego, CA).
Usually IC50 stands for the concentration that gives 50% inhibition. For the compound `CC(CC(=O)O)CC(=O)c1c(CCCCCC(O)c2cccc(C#N)c2)n(C)c2ncc(Cl)cc12` (single isomer, unassigned) [Compound I-308], the half-inhibitory concentration (IC50) is under 100 nM.
With `CC(CC(=O)O)CC(=O)c1c(CCCCCC(O)c2cccc(C(=O)N(C)C)c2)n(C)c2ncc(C#N)cc12` (single isomer, unassigned) [Compound I-315], the IC50 was over 300 nM.

Staying with this test, now noted: Neutrophil, 5-OXO-ETE-stimulated calcium flux.
Consider `C[C@H](CC(=O)O)CC(=O)c1c(CCCCCCC#CC(C)(C)C)n(C)c2ccc(Cl)cc12` [Compound I-112], for which the IC50 was under 100 nM.
On the same count and under the same terms, in the case of `CC(CC(=O)O)CC(=O)c1c(CCCCCC(O)c2ccc(Cl)cc2)n(C)c2ncc(C#N)cc12` (stereo not shown) [Compound I-310] it was 100 to 300 nM; in that of `Cn1c(CCCCCCC#CC2CC(F)(F)C2)c(C(=O)N2CC[C@H](c3noc(=O)[nH]3)C2)c2cc(C#N)cnc21` [Compound I-456], over 300 nM.
As to `C[C@H](CC(=O)O)CC(=O)c1c(CCCCCN(C)c2ncccn2)n(C)c2ccc(Cl)cc12` [Compound I-124], the IC50 lay within 100 to 300 nM.
`CC(=O)N(C)c1cccc(C(O)CCCCCc2c(C(=O)CC(C)CC(=O)O)c3cc(C#N)cnc3n2C)c1` (stereo not shown) [Compound I-313]: the IC50 was over 300 nM.
For the compound `COc1cc(COCCCCc2c(C(=O)CC(C)CC(=O)O)c3cc(C#N)cnc3n2C)ccc1F` (stereo not shown) [Compound I-391], the IC50 is under 100 nM.
On the same count and under the same terms, with `C[C@H](CC(=O)O)CC(=O)c1c(CCCCO[C@H](C)c2ccccc2)n(C)c2ncc(C#N)cc12` [Compound I-434] the figure was under 100 nM; with `C[C@H](CC(=O)O)CC(=O)c1c(CCCCCCc2cccc(Cl)c2)n(C)c2ncc(Cl)cc12` [Compound I-24], over 300 nM; with `Cn1c(CCCCCCc2cccc(Cl)c2)c(C(=O)N2CC[C@H](C(=O)O)C2)c2cc(Cl)cnc21` [Compound I-147], over 300 nM.
As for `Cn1c(CCCCCCc2cccc(Cl)c2)c(C(=O)N2CC[C@H](C(=O)NS(C)(=O)=O)C2)c2cc(C#N)cnc21` [Compound I-361], the 50% inhibitory concentration (IC50) is over 300 nM.
Regarding `Cn1c(CCCCOCc2ccccc2)c(C(=O)N2CC[C@H](C(=O)O)C2)c2cnccc21` [Compound I-441], the half-inhibitory concentration (IC50) was over 300 nM.
Regarding `COc1cccc(C(O)CCCCCc2c(C(=O)CC(C)CC(=O)O)c3cc(C#N)cnc3n2C)c1` (stereo not shown) [Compound I-302], the IC50 is under 100 nM.
Regarding `C[C@H](CC(=O)O)CC(=O)c1c(CCOCCOc2cccc(Cl)c2)n(C)c2ccc(Cl)cc12` [Compound I-64], the IC50 lay in the range of 100 to 300 nM.
As for `COc1ccc2c(c1)c(C(=O)C[C@H](C)CC(=O)O)c(CCCCCCc1cccc(Cl)c1)n2C` [Compound I-96], the IC50 was under 100 nM.
With `C[C@H](CC(=O)O)CC(=O)c1c(CCCCCCC#CC2CC(F)(F)C2)[nH]c2ccc(Cl)cc12` [Compound I-323], the IC50 was under 100 nM.
`Cn1c(CCCCCCC#CC2CC(F)(F)C2)c(C(=O)N2CC[C@H](C(=O)NCCS(=O)(=O)O)C2)c2cc(C#N)cnc21` [Compound I-464]: the IC50 is over 300 nM.
On the same count and under the same terms, in the case of `C[C@H](CC(=O)O)CC(=O)c1c(CCOCCNc2cccc(F)c2)n(C)c2ncc(C#N)cc12` [Compound I-246] it was 100 to 300 nM.
Same read-out and setting: in the case of `C[C@H](CC(=O)N[C@@H](CCC(N)=O)C(=O)O)CC(=O)c1c(CCCCOCc2ccccc2)n(C)c2ncc(C#N)cc12` [Compound I-460] it was over 300 nM; in that of `C[C@H](CC(=O)O)CC(=O)c1c(CCCCCCc2cccc(Cl)c2)n(CCO)c2ncc(C#N)cc12` [Compound I-279], under 100 nM; in that of `COc1cccc(COCCCCc2c(C(=O)CC(C)CC(=O)O)c3cc(Cl)cnc3n2C)n1` (stereo not shown) [Compound I-447], over 300 nM.
Still for that read-out and setting: in the case of `C[C@@H]1CN(C(=O)c2c(CCCCCCC#CC3CC(F)(F)C3)n(C)c3ncc(C#N)cc23)C[C@H]1C(=O)O` [Compound I-347] it was over 300 nM; in that of `C[C@H](CC(=O)O)CC(=O)c1c(CCCCCOCC#CC2CC(F)(F)C2)n(C)c2ccc(Cl)cc12` [Compound I-337], under 100 nM.
With `CC(C)CCCCc1c(C(=O)C[C@H](C)CC(=O)O)c2cc(Cl)ccc2n1C` [Compound I-70], the IC50 was 100 to 300 nM.
